Drawing on ChEMBL document CHEMBL4152326 (2018), this text covers MIC for 21 compounds.

Structures are written as SMILES.

What all share (type): functional
Test [1] relates to Pseudomonas aeruginosa. As to the kind of experiment: Antimicrobial activity against AmpC overproducing Pseudomonas aeruginosa SR24-12 in presence of human apo-transferrin by broth microdilution method.
For test [2], the system named is Stenotrophomonas maltophilia. The experiment in a line: Antimicrobial activity against L-1 producing Stenotrophomonas maltophilia SR21970 in presence of human apo-transferrin by broth microdilution method.
In test [3] the test system is Pseudomonas aeruginosa. As to the kind of experiment: Antimicrobial activity against VIM-2 producing Pseudomonas aeruginosa SBRKM-28 in presence of human apo-transferrin by broth microdilution method. Background: In broth dilution the organism is exposed to a series of concentrations in liquid medium.
The subject of test [4] is Pseudomonas aeruginosa. As to the kind of experiment: Antimicrobial activity against Pseudomonas aeruginosa SR24 in presence of human apo-transferrin by broth microdilution method.
For test [5], the system named is Pseudomonas aeruginosa. The experiment in a line: Antimicrobial activity against IMP-1 producing Pseudomonas aeruginosa SR27001 in presence of human apo-transferrin by broth microdilution method.
The test system of test [6] is Pseudomonas aeruginosa. As to the kind of experiment: Antimicrobial activity against Pseudomonas aeruginosa 27060deltaR1 harboring deletion of R1 plasmid in presence of human apo-transferrin by broth microdilution method.
The subject of test [7] is Pseudomonas aeruginosa. The experiment in a line: Antimicrobial activity against IMP-1 producing Pseudomonas aeruginosa SR27060 in presence of human apo-transferrin by broth microdilution method.
For test [8], the system named is Escherichia coli. As to the kind of experiment: Antimicrobial activity against SHV-4 producing Escherichia coli ATCC BAA-200 in presence of human apo-transferrin by broth microdilution method.
Test [9] concerns Klebsiella pneumoniae. The experiment in a line: Antimicrobial activity against KPC-2 producing Klebsiella pneumoniae ATCC BAA-1705 in presence of human apo-transferrin by broth microdilution method.
Test [10] deals with Acinetobacter baumannii. As to the kind of experiment: Antimicrobial activity against OXA-23/OXA-58 producing Acinetobacter baumannii SR27323 in presence of human apo-transferrin by broth microdilution method.

Usually MIC stands for the least concentration at which growth counts as inhibited. As for `CC(C)(O/N=C(\C(=O)N[C@@H]1C(=O)N2C(C(=O)[O-])=C(C[N+]3(CCCNC(=O)c4ccc(O)c(O)c4Cl)CCCC3)CS[C@H]12)c1csc(N)n1)C(=O)O`, the MIC in test [1] is 0.5 µg/mL; in test [2] it was 0.125 µg/mL; in [3], 0.125 µg/mL; in [4] it was 0.5 µg/mL; in test [5] it was 1 µg/mL; in [6], 0.25 µg/mL. In test [7], the MIC turned out to be 1 µg/mL.
Take `C[C@@H](C[N+]1(CC2=C(C(=O)[O-])N3C(=O)[C@@H](NC(=O)/C(=N\OC(C)(C)C(=O)O)c4csc(N)n4)[C@H]3SC2)CCCC1)NC(=O)c1ccc(O)c(O)c1Cl`: the MIC in test [1] amounted to 0.25 µg/mL; in test [2] it was 0.25 µg/mL; in test [3] it was 0.125 µg/mL; in test [4], 0.25 µg/mL; in [5], 1 µg/mL; in test [6], 0.25 µg/mL. In addition, in test [7], the MIC worked out at 2 µg/mL.
As for `CC(C)(O/N=C(\C(=O)N[C@@H]1C(=O)N2C(C(=O)[O-])=C(C[N+]3(Cc4nnc(-c5ccc(O)c(O)c5Cl)o4)CCCC3)CS[C@H]12)c1csc(N)n1)C(=O)O`, the MIC in test [1] worked out at 0.5 µg/mL; in [2] it was 0.5 µg/mL; in [3], 0.125 µg/mL; in test [4] it was 0.5 µg/mL; in test [5] it was 2 µg/mL; in [6], 0.5 µg/mL. The MIC in test [7] came to 2 µg/mL.
For the compound `NCC[N+]1(CC2=C(C(=O)[O-])N3C(=O)[C@@H](NC(=O)/C(=N\OC[C@H](NC(=O)c4ccc(O)c(O)c4Cl)C(=O)O)c4csc(N)n4)[C@H]3SC2)CCCC1`, the MIC was more than 32 µg/mL in test [8]; 0.25 µg/mL in [1]; 0.25 µg/mL in test [9]; more than 32 µg/mL in test [2]; 0.125 µg/mL in test [4]; 0.25 µg/mL in test [5]. Besides, the MIC turned out to be 0.063 µg/mL in test [6], 0.125 µg/mL in test [7] and 4 µg/mL in test [10].
For `CC(C)(O/N=C(\C(=O)N[C@@H]1C(=O)N2C(C(=O)[O-])=C(C[N@@+]3(C)C[C@H]4CN(C(=O)c5ccc(O)c(O)c5Cl)C[C@H]4C3)CS[C@H]12)c1csc(N)n1)C(=O)O`, the minimum inhibitory concentration (MIC) in test [1] amounted to 0.25 µg/mL; in [2] it was 0.5 µg/mL; in [3], 0.125 µg/mL; in test [4], 0.25 µg/mL; in [5], 4 µg/mL; in [6] it was 0.5 µg/mL. Further, in test [7], the MIC worked out at 4 µg/mL.
On to `CC(C)(O/N=C(\C(=O)N[C@@H]1C(=O)N2C(C(=O)[O-])=C(C[N+]3(C)CCN(C(=O)c4ccc(O)c(O)c4Cl)CC3)CS[C@H]12)c1csc(N)n1)C(=O)O`, for which the MIC in test [8] was found to be 32 µg/mL; in test [1], 0.125 µg/mL; in test [9], 0.125 µg/mL; in test [2], 1 µg/mL; in test [4], 0.125 µg/mL; in test [5], 4 µg/mL. Moreover, the minimum inhibitory concentration (MIC) in test [6] was determined as 0.25 µg/mL; in test [7], 8 µg/mL; in [10], 1 µg/mL.
Take `C[N+]1(CC2=C(C(=O)[O-])N3C(=O)[C@@H](NC(=O)/C(=N\OC[C@H](NC(=O)c4ccc(O)c(O)c4Cl)C(=O)O)c4csc(N)n4)[C@H]3SC2)CCCC1`: the MIC in test [1] was 1 µg/mL; in [2] it was 8 µg/mL; in [3] it was 0.125 µg/mL; in [4], 0.125 µg/mL; in [5], 4 µg/mL; in [6], 2 µg/mL. Further, the MIC in [7] turned out to be 4 µg/mL.
Consider `CC(C)(O/N=C(\C(=O)N[C@@H]1C(=O)N2C(C(=O)[O-])=C(C[N+]34CCC(CC3)N(C(=O)c3ccc(O)c(O)c3Cl)CC4)CS[C@H]12)c1csc(N)n1)C(=O)O`, for which the MIC in [1] came to 0.25 µg/mL; in test [2], 0.125 µg/mL; in test [3] it was 0.125 µg/mL; in [4] it was 0.25 µg/mL; in [5], 1 µg/mL; in [6], 1 µg/mL. Besides, in test [7], the minimal inhibitory concentration (MIC) came to 4 µg/mL.
Consider `CO/N=C(\C(=O)N[C@@H]1C(=O)N2C(C(=O)[O-])=C(C[N+]3(CCNC(=O)c4ccc(O)c(O)c4Cl)CCCC3)CS[C@H]12)c1csc(N)n1`, for which the MIC in test [2] was 2 µg/mL; in [3], 0.5 µg/mL; in test [5], 4 µg/mL; in test [7], 32 µg/mL.
Consider `CC(C)(O/N=C(\C(=O)N[C@@H]1C(=O)N2C(C(=O)[O-])=C(C[n+]3ccc(-c4ccc(O)c(O)c4Cl)cc3)CS[C@H]12)c1csc(N)n1)C(=O)O` (stereo in doubt), for which the MIC in [2] is 1 µg/mL; in test [3], 0.25 µg/mL; in test [5], more than 64 µg/mL; in test [7], 16 µg/mL.
As to `CC(C)(O/N=C(\C(=O)N[C@@H]1C(=O)N2C(C(=O)[O-])=C(C[n+]3cccc4c3CCCN4C(=O)c3ccc(O)c(O)c3Cl)CS[C@H]12)c1csc(N)n1)C(=O)O`, the minimum inhibitory concentration (MIC) was 0.5 µg/mL in test [2], 0.125 µg/mL in [3], 4 µg/mL in [5] and 4 µg/mL in [7].
On to `C[N+]1(CC2=C(C(=O)[O-])N3C(=O)[C@@H](NC(=O)/C(=N\O[C@@H](CNC(=O)c4ccc(O)c(O)c4Cl)C(=O)O)c4csc(N)n4)[C@H]3SC2)CCCC1`, for which the minimum inhibitory concentration (MIC) is more than 32 µg/mL in test [8]; 0.5 µg/mL in test [1]; 0.25 µg/mL in [9]; 16 µg/mL in test [2]; 0.125 µg/mL in [4]; 8 µg/mL in [5]. Also, the MIC came to 0.5 µg/mL in [6], 4 µg/mL in [7] and 1 µg/mL in [10].
With `CC(C)(O/N=C(\C(=O)N[C@@H]1C(=O)N2C(C(=O)[O-])=C(C[N+]3(CCN)CCCC3)CS[C@H]12)c1csc(N)n1)C(=O)O`, the minimal inhibitory concentration (MIC) in test [8] is 16 µg/mL; in test [1] it was 8 µg/mL; in [9], 8 µg/mL; in test [2], more than 32 µg/mL; in [4], 2 µg/mL; in test [5], 32 µg/mL. The MIC in test [6] stood at 4 µg/mL; in [7], 16 µg/mL; in [10], 8 µg/mL.
Regarding `COc1c(C(=O)NCC[N+]2(CC3=C(C(=O)[O-])N4C(=O)[C@@H](NC(=O)/C(=N\OC(C)(C)C(=O)O)c5csc(N)n5)[C@H]4SC3)CCCC2)ccc(O)c1O`, the minimal inhibitory concentration (MIC) in test [8] was 8 µg/mL; in test [1], 0.125 µg/mL; in test [9], 0.25 µg/mL; in test [2], 2 µg/mL; in test [4], 0.125 µg/mL; in test [5], 4 µg/mL. For the same compound, the MIC turned out to be 2 µg/mL in test [6], 4 µg/mL in test [7] and 1 µg/mL in [10].
`C[C@@H](O)[C@H]1C(=O)N2C(C(=O)O)=C(S[C@@H]3CN[C@H](C(=O)N(C)C)C3)[C@H](C)[C@H]12` [MEROPENEM]: the minimum inhibitory concentration (MIC) is not above 0.063 µg/mL in test [8], 0.125 µg/mL in test [1], more than 64 µg/mL in test [2] and not above 0.063 µg/mL in test [4].
Consider `CC(C)(O/N=C(\C(=O)N[C@@H]1C(=O)N2C(C(=O)[O-])=C(C[N+]3(CCNC(=O)Nc4ccc(O)c(O)c4Cl)CCCC3)CS[C@H]12)c1csc(N)n1)C(=O)O`, for which the minimal inhibitory concentration (MIC) in test [1] was determined as 1 µg/mL; in [2], 4 µg/mL; in test [3], 0.5 µg/mL; in test [4], 1 µg/mL; in test [5] it was 4 µg/mL; in test [6] it was 2 µg/mL. Also, the minimal inhibitory concentration (MIC) in test [7] was 8 µg/mL.
With `CC(C)(O/N=C(\C(=O)N[C@@H]1C(=O)N2C(C(=O)[O-])=C(C[N+]3(CCNC(=O)c4ccc(O)c(O)c4Cl)CCCC3)CS[C@H]12)c1nsc(N)n1)C(=O)O`, the MIC stood at 0.25 µg/mL in test [1]; 0.25 µg/mL in [2]; 0.25 µg/mL in test [3]; 0.25 µg/mL in test [4]; 1 µg/mL in test [5]; 0.25 µg/mL in test [6]. Also, the MIC in test [7] is 1 µg/mL.
With `CC(C)(O/N=C(\C(=O)N[C@@H]1C(=O)N2C(C(=O)[O-])=C(C[N+]3(CCNC(=O)c4ccc(=O)n(O)c4)CCCC3)CS[C@H]12)c1csc(N)n1)C(=O)O`, the minimum inhibitory concentration (MIC) turned out to be 8 µg/mL in test [8]; 2 µg/mL in test [1]; 2 µg/mL in test [9]; 4 µg/mL in test [2]; 2 µg/mL in test [4]; 16 µg/mL in [5]. Besides, the MIC worked out at 4 µg/mL in [6], 8 µg/mL in test [7] and 32 µg/mL in test [10].
In the case of `CC(C)(O/N=C(\C(=O)N[C@@H]1C(=O)N2C(C(=O)[O-])=C(C[n+]3cc4cc(NC(=O)c5ccc(O)c(O)c5Cl)ccn4c3)CS[C@H]12)c1csc(N)n1)C(=O)O`, the MIC in test [8] is 4 µg/mL; in test [1], 2 µg/mL; in test [9] it was 0.25 µg/mL; in test [2] it was more than 32 µg/mL; in test [4] it was 0.25 µg/mL; in test [5] it was more than 32 µg/mL. Besides, the figures for the MIC in test [6], in [7] and in test [10] were 4 µg/mL, more than 32 µg/mL and 0.5 µg/mL, respectively.
`CC(C)(O/N=C(\C(=O)N[C@@H]1C(=O)N2C(C(=O)[O-])=C(C[N+]3(C)C[C@H]4C[C@@H]3CN4C(=O)c3ccc(O)c(O)c3Cl)CS[C@H]12)c1csc(N)n1)C(=O)O` (stereo partly specified): the minimum inhibitory concentration (MIC) in [1] worked out at 0.5 µg/mL; in test [2], 0.5 µg/mL; in test [3] it was 0.25 µg/mL; in [4] it was 0.25 µg/mL; in test [5], 2 µg/mL; in [6], 2 µg/mL. Besides, the minimal inhibitory concentration (MIC) in [7] worked out at 4 µg/mL.
Take `NCC[N+]1(CC2=C(C(=O)[O-])N3C(=O)[C@@H](NC(=O)/C(=N\O[C@@H](CNC(=O)c4ccc(O)c(O)c4Cl)C(=O)O)c4csc(N)n4)[C@H]3SC2)CCCC1`: the minimum inhibitory concentration (MIC) in [8] was found to be 8 µg/mL; in [1] it was 0.063 µg/mL; in [9] it was 0.125 µg/mL; in [2], 16 µg/mL; in [4] it was 0.125 µg/mL; in test [5] it was 0.5 µg/mL. Further, the MIC is 0.063 µg/mL in [6], 0.125 µg/mL in test [7] and 0.5 µg/mL in [10].
